Laboratory results taken from article PMC6799938, “Determinants of drug entry into the developing brain” (F1000Research, 2019).
Where two headings read alike, the source gives them in different places.

Experiments:
[1] = for Brain radioactivity level / CSF radioactivity level / Plasma radioactivity level: mean
Experimental: Animals. Sprague Dawley rats were supplied by the University of Melbourne Biological Research Facility and housed in groups of 2–4 (adult) or full litters per cage (25cm x 35cm x 25cm on Breeders Choice paper bedding, made from 99% recycled paper; it is biodegradable with no added chemicals), on a 12 h light/dark cycle with ad libitum access to food (dry pellets of a fixed formulation diet for laboratory rats and mice fortified with vitamins and minerals to meet the requirements of breeding animals after the diet is autoclaved or irradiated, supplied by Speciality Feeds, Western Australia) and water. Age groups investigated (at treatment completion) were time mated pregnant females at E19 (350-400g body weight), postnatal pups at P4 and non-pregnant female adults (175-230g body weight). E19 was chosen because this is a stage of development when adequate volumes of blood and CSF can be obtained for analysis from fetal rats without pooling ( [Dziegielewska et al., 1981]) and individual pups can be injected intraperitoneally while still inside the uterine horn and kept viable for periods of time. P4 was chosen because its stage of brain development is similar to that of very prematurely born but viable human infants of 22–24 weeks gestation ( [Clancy et al., 2001]). Animal numbers were based on previous experience of such experiments and were the minimum number required to detect a significant difference between groups at P <0.05.
Drug doses. Drug doses were selected based on use in clinical practice ( [Australian Medicines Handbook, 2019]) and adjusted for body weight.
(§1) Experimental procedure. In acute drug experiments, a single dose was injected that included traces of [ ^3H]-labelled drug (20µCi adults, 2µCi newborns). In chronic experiments, doses of unlabelled drug were given twice daily (09.00 and 17.00h) for four days before a final injection on the 5 ^th day identical to acute experiments. In passive marker experiments, all dosing was acute and contained only the [ ^3H]- or [ ^14C]-labelled compound (20µCi adults, 2µCi newborns).
(§2) In all experiments involving postnatal animals, injections were intraperitoneal (i.p.). In pregnant animals for fetal drug entry studies, the final injection of the radiolabelled marker was given intravenously (i.v.), as the peritoneal cavity required opening prior to the sampling period to gain access to the fetuses. For passive markers (L-glucose, sucrose and glycerol), fetal animals were individually injected i.p. while still within the uterine horn. All experiments took place between 09.00 and 15.00h. All pregnancy studies were completed with a single treatment group on one day. Postnatal groups were conducted with a single treatment group on one day or with the chronic group completed prior to the acute group.
(§3) Sample collection. Samples were collected 30 minutes after the final injection. This duration was chosen partly to limit any potential metabolism of the drugs and markers used but also to allow enough time for i.p. injected markers to reach the blood stream and, from there, to access the brain parenchyma across brain barriers, as well as to limit the CSF sink effect that could influence drug levels ( [Bito et al., 1966]). Thirty minutes is also within the half-life of these drugs ( [Adedoyin et al., 1987]; [Harrison & Gibaldi, 1976]; Lin & Levy, 1963). The other reason a 30-minute duration was chosen is that in the case of exposed fetal rat pups, it is difficult to maintain them in a reasonable physiological state for long periods due to deterioration of placental perfusion. Therefore, for comparative purposes, all studies were conducted at the same time.
For adult and newborn (P4) experiments, animals were terminally anaesthetized using inhaled isofluorane (IsoFlo 100% w/w, Abbott Laboratories).

[2] = Sprague Dawley, rat, in vivo
[3] = Entry of "passive" markers into brain and CSF
Experimental: as §1, §2, §3
For adult and newborn (P4) experiments, animals were terminally anaesthetized using inhaled isofluorane (IsoFlo 100% w/w, Abbott Laboratories). Blood samples were collected from the right cardiac ventricle, CSF from the cisterna magna (Habgood et al., 1992) and cortical segments of brain tissue dorsal to the ventricle of the frontal/parietal lobes, as previously described ( [Koehn et al., 2019]). Blood and CSF sampling from the P4 animals was terminal and would thus not have affected the physiological state of the animals during the experiment.
Sample preparation. Samples were processed immediately after collection. Blood was centrifuged at 7000rpm for five minutes and the plasma separated. CSF samples were examined microscopically for traces of red blood cells and discarded if contaminated (Habgood et al., 1992). In all experiments, the radioactivity in the injectate was also measured to confirm the uniformity of the injected material. All samples were weighed and transferred into scintillation vials. Soluene350 (0.5ml, PerkinElmer) was added to the brain samples. After being incubated at 36°C overnight to allow the tissue to solubilize, two drops of glacial acetic acid (Sigma) were added to neutralize the strongly alkaline Soluene350. All samples were then mixed with 5ml of scintillation fluid (Emulsifier-safe, PerkinElmer) before being transferred into the liquid scintillation counter (Tri-Carb 4910 TR, PerkinElmer) to count radioactivity disintegrations per minute (DPM) over five minutes each with luminescence correction on. Blank vials containing the same tissues without radioactivity were also counted alongside the samples to establish the level of background counts, which were always subtracted from the radioactivity counts of the corresponding experimental samples.
BrainorCSFtransfer=BrainorCSFDPM/μl/plasmaDPM/μl×100%

[4] = E19 fetuses, acute, 30 min - […] after administration
[5] = E19 fetuses, chronic (twice daily over five days), 30 min - […] after final dose
[6] = P4, chronic i.p. (twice daily over five days), 30 min after final dose
[7] = adult, chronic i.p. (twice daily over five days), 30 min after final dose
[8] = passive marker, E19, 60-minute, separate experimentation
[9] = passive marker, E19, 30 minutes after i.p. injection
[10] = passive marker, P4, 30 minutes after i.p. injection
[11] = passive marker, adults, 30 minutes after i.p. injection

For `CC(=O)Nc1ccc(O)cc1` [Paracetamol], the “transfer from maternal blood to fetal brain” value ([1]; E19, acute) was 28%, the Brain radioactivity level [1, 4] was 39.6 DPM/µg and the CSF radioactivity level [1, 4] was 35.3 DPM/µl. The Plasma radioactivity level [1, 4] was 57.8 DPM/µl, the Brain radioactivity level [1, 5] was 146.1 DPM/µg and the CSF radioactivity level [1, 5] was 119.0 DPM/µl. It also gave a Plasma radioactivity level [1, 5] of 140.5 DPM/µl, a Brain radioactivity level ([1]; P4, acute i.p., 30 min) of 117.5 DPM/µg and a CSF radioactivity level ([1]; P4, acute i.p., 30 min) of 96.5 DPM/µl. For the same molecule, the Plasma radioactivity level ([1]; P4, acute i.p., 30 min) was 193.6 DPM/µl, the Brain radioactivity level [1, 6] was 84.4 DPM/µg and the CSF radioactivity level [1, 6] was 71.0 DPM/µl. The Plasma radioactivity level [1, 6] was 166.8 DPM/µl, the “transfer into maternal brain (brain/maternal blood)” value ([1]; acute) was 30% and the Brain radioactivity level ([1]; adult, acute i.p., 30 min) was 27.3 DPM/µg. It also gave a CSF radioactivity level ([1]; adult, acute i.p., 30 min) of 25.4 DPM/µl, a Plasma radioactivity level ([1]; adult, acute i.p., 30 min) of 90.1 DPM/µl and a Brain radioactivity level [1, 7] of 17.6 DPM/µg. The CSF radioactivity level [1, 7] was 14.9 DPM/µl, the Plasma radioactivity level [1, 7] was 83.3 DPM/µl and the “transfer into maternal brain (brain/maternal blood)” value ([1]; chronic (five days of twice-daily dosing)) was 21%.
With `C[C@H]1O[C@@H](O[C@H]2[C@@H](O)C[C@H](O[C@H]3[C@@H](O)C[C@H](O[C@H]4CC[C@@]5(C)[C@H](CC[C@@H]6[C@@H]5C[C@@H](O)[C@]5(C)[C@@H](C7=CC(=O)OC7)CC[C@]65O)C4)O[C@@H]3C)O[C@@H]2C)C[C@H](O)[C@@H]1O` [Digoxin] the “restriction of transfer by the placenta” value [2] was “about 60%”.
In the case of `OC[C@H]1O[C@@](CO)(O[C@H]2O[C@H](CO)[C@@H](O)[C@H](O)[C@H]2O)[C@@H](O)[C@@H]1O` [sucrose, Sucrose], the CSF/Plasma Ratio ([3]; rat, in vivo) is reported as “very low” and the Brain/Plasma Ratio ([3]; rat, in vivo, 0.5 h) is reported as “very low”.
With `OCC(O)CO` [Glycerol] the CSF concentration ratio [3, 8] was about 100%, the brain concentration ratio [3, 8] was “approximately 80%” and the Brain/Plasma Ratio [3, 9] was 46.8%. It also gave a CSF/Plasma Ratio [3, 9] of 46.8%, a Brain/Plasma Ratio [3, 10] of 82.2% and a CSF/Plasma Ratio [3, 10] of 95%. For the same molecule, the Brain/Plasma Ratio [3, 11] was 85.5%, the CSF/Plasma Ratio [3, 11] was 103.9% and the “Fetal/Maternal plasma concentration ratio, range” value [2] was “(68.1 - 134.7) %”.
